Test results from ChEMBL document CHEMBL3758137 (Eur J Med Chem, 2016).

How the values were obtained:
[1] = target: Hepatocyte growth factor receptor (Homo sapiens, UniProt P08581); assay: Inhibition of recombinant c-Met (unknown origin) using poly (Glu,Tyr)4:1 as substrate after 60 mins by ELISA
[2] = Antiproliferative activity against human EBC1 cells after 72 hrs by SRB assay; conditions: EBC-1, 72 h
[3] = Solubility of compound in HBSS/HEPES buffer at pH 6.8 by nephelometric analysis in presence of 0.1% BSA; format: physicochemical; conditions: HBSS/HEPES buffer with 0.1% BSA
[4] = Solubility of compound in HBSS/HEPES buffer at pH 7.4 by nephelometric analysis in presence of 0.1% BSA; format: physicochemical; conditions: HBSS/HEPES buffer with 0.1% BSA
[5] = Solubility of compound in TRIS buffer by nephelometric analysis in presence of 0.1% BSA; format: physicochemical; conditions: TRIS buffer with 0.1% BSA
[6] = Apparent permeability from apical to basolateral side in human Caco2 cells after 35 to 95 mins by LC-MS/MS analysis; format: ADME, cell-based; conditions: Caco-2
[7] = Apparent permeability from basolateral to apical side in human Caco2 cells after 35 to 95 mins by LC-MS/MS analysis; format: ADME, cell-based; conditions: Caco-2
Liver microsome [8] = assay: Intrinsic clearance in human liver microsomes at 0.1 uM after 7 to 60 mins by LC-MS/MS analysis; format: ADME
[9] = Intrinsic clearance in mouse liver microsomes at 0.1 uM after 7 to 60 mins by LC-MS/MS analysis; format: ADME
Liver microsome [10] = assay: Intrinsic clearance in rat liver microsomes at 0.1 uM after 7 to 60 mins by LC-MS/MS analysis; format: ADME
[11] = Antitumor activity against human EBC1 cells xenografted in nude mouse assessed as tumor growth inhibition at 50 mg/kg, po qd administered for 21 days relative to control; format: functional; conditions: EBC-1, po, 504 h, read-out: TGI

Hepatocyte growth factor receptor, sequence (P08581 whole entry): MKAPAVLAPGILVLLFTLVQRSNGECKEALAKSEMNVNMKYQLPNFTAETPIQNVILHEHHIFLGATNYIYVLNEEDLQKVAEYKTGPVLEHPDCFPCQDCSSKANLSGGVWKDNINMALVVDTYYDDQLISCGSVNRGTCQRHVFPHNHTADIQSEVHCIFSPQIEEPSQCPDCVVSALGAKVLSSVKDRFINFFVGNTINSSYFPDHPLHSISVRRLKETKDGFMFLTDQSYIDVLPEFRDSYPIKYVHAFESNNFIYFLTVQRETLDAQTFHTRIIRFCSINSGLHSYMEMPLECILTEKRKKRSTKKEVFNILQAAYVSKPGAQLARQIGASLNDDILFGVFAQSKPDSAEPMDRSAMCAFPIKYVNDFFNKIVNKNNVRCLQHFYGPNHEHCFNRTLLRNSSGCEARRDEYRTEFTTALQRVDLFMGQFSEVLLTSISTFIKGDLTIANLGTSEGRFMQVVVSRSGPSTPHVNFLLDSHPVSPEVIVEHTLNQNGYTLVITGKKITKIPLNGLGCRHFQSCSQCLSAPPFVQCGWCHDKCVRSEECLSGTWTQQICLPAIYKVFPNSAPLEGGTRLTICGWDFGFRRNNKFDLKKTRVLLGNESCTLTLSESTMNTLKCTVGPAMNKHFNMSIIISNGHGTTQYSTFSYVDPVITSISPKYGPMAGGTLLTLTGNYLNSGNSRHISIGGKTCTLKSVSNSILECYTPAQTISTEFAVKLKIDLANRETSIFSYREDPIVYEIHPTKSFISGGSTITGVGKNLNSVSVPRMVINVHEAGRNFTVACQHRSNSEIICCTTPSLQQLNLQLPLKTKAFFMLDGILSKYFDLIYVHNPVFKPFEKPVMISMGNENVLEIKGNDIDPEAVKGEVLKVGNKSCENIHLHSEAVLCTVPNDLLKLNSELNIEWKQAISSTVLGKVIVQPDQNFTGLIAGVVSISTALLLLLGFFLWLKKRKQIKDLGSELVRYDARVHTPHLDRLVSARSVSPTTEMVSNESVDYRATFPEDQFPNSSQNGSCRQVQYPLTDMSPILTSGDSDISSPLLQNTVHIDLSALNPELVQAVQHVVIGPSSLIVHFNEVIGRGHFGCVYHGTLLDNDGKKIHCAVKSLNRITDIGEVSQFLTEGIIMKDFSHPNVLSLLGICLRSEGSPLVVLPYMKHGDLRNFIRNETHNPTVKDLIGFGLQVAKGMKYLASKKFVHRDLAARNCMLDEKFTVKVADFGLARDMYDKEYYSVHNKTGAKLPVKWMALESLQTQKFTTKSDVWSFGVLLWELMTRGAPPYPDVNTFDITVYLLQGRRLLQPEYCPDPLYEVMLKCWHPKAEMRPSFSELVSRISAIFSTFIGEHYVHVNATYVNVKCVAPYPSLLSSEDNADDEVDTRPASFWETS

SMILES	IC50 [2] [nM]	also measured
Cn1cc(-c2ccc(=O)n(Cc3cccc(Nc4nc5ccccc5[nH]4)c3)n2)cn1	> 200	IC50 [1]: > 100 nM
Cn1cc(-c2ccc(Nc3cccc(Cn4nc(-c5cnn(C)c5)ccc4=O)c3)nc2)cn1	> 200	IC50 [1]: > 100 nM
Cn1cc(-c2ccc(=O)n(Cc3cccc(Nc4ncn(C)n4)c3)n2)cn1	> 200	IC50 [1]: > 100 nM
Cn1cc(-c2ccc(=O)n(Cc3cccc(Nc4ncccn4)c3)n2)cn1	> 200	IC50 [1]: > 100 nM
Cn1cc(-c2cnc(Nc3cccc(Cn4nc(-c5ccc(Cl)c(C(F)(F)F)c5)ccc4=O)c3)nc2)cn1	65	–
CNC(=O)c1ccc(-c2ccc(=O)n(Cc3cccc(Nc4ncc(-c5cnn(C)c5)cn4)c3)n2)cc1F	31.3	solubility kinetic [3]: 2 µM; solubility kinetic [4]: 2 µM; solubility kinetic [5]: 2 µM; Papp A→B [6]: 1.7 ×10⁻⁶ cm/s; Papp B→A [7]: 17.4 ×10⁻⁶ cm/s; CLH (Liver microsome [8]): 28 mL/min/g; CLH [9]: 50 mL/min/g; CLH (Liver microsome [10]): 64 mL/min/g
CN1CCN(Cc2cnc(Nc3cccc(Cn4nc(-c5cnn(C)c5)ccc4=O)c3)nc2)CC1	> 200	IC50 [1]: > 100 nM
Cn1cc(-c2cnc(Nc3cccc(Cn4nc(-c5ccc(S(C)(=O)=O)cc5)ccc4=O)c3)nc2)cn1	73.4	–
Cn1cc(-c2ccnc(Nc3cccc(Cn4nc(-c5cnn(C)c5)ccc4=O)c3)n2)cn1	> 200	IC50 [1]: > 100 nM
Cn1cc(-c2cnc(Nc3cccc(Cn4nc(-c5cccc(S(C)(=O)=O)c5)ccc4=O)c3)nc2)cn1	> 200	–
Cn1cc(-c2cnc(Nc3cccc(Cn4nc(-c5cnn(CCO)c5)ccc4=O)c3)nc2)cn1	99.8	–
Cn1cc(-c2cnc(Nc3cccc(Cn4nc(-c5ccncc5)ccc4=O)c3)nc2)cn1	> 200	–
CN(C)C(=O)c1ccc(-c2ccc(=O)n(Cc3cccc(Nc4ncc(-c5cnn(C)c5)cn4)c3)n2)cc1F	102	–
Cn1cc(-c2ccc(=O)n(Cc3cccc(Nc4ncc(-c5cccnc5)cn4)c3)n2)cn1	> 200	–
Cn1cc(-c2cnc(Nc3cccc(Cn4nc(-c5ccc(C(=O)O)c(F)c5)ccc4=O)c3)nc2)cn1	> 200	–
Cn1cc(-c2cnc(Nc3cccc(Cn4nc(-c5cccc(C#N)c5)ccc4=O)c3)nc2)cn1	108	–
Cn1cc(-c2cnc(Nc3cccc(Cn4nc(-c5cccc(C(=O)O)c5)ccc4=O)c3)nc2)cn1	> 200	–
Cn1cc(-c2ccc(=O)n(Cc3cccc(Nc4ncc(-c5cncs5)cn4)c3)n2)cn1	> 200	–
COCCOc1cnc(Nc2cccc(Cn3nc(-c4cnn(C)c4)ccc3=O)c2)nc1	> 200	–
CC(C)n1cc(-c2cnc(Nc3cccc(Cn4nc(-c5cnn(C)c5)ccc4=O)c3)nc2)cn1	94.6	–
CN1CCC(n2cc(-c3cnc(Nc4cccc(Cn5nc(-c6cnn(C)c6)ccc5=O)c4)nc3)cn2)CC1	65	–
Cn1cc(-c2ccc(=O)n(Cc3cccc(Nc4ncc(-c5cnn(CCO)c5)cn4)c3)n2)cn1	48.7	–
Cn1cc(-c2cnc(Nc3cccc(Cn4nc(-c5cccnc5)ccc4=O)c3)nc2)cn1	> 200	–
C[C@@H](Oc1cc(-c2cnn(C3CCNCC3)c2)cnc1N)c1c(Cl)ccc(F)c1Cl [CRIZOTINIB]	19	inhibition in vivo at 50 mg/kg [11]: 108%
